From US10183950B2, “Thienopyrimidine inhibitors of atypical protein kinase C” (Cancer Research Technology Limited, priority 2011, dated 2019)

What follows are molecules tested against T1, kinase-domain human PKCι (Homo sapiens, UniProt P41743) (assay: PKCι IC50 IMAP fluorescence polarisation assay, kinase-domain enzyme). Settings: kinase domain PKCi at 2 μM ATP; read-out: IC50 in IMAP assay against kinase domain PKCi.
T1 construct: Recombinant, kinase-domain human PKCι is expressed and purified in-house; made in house
T1 sequence (P41743 254-522 limits assumed): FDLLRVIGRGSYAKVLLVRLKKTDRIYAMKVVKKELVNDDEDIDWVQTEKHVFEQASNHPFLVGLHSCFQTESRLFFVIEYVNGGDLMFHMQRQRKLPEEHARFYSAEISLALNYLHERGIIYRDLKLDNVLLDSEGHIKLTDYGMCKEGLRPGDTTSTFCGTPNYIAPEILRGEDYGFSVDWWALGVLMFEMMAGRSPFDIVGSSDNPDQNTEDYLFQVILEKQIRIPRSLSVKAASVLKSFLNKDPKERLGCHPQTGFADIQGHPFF
Type: biochemical
An IC50 of 1 to 10 µM was found for `Clc1cccc2sc3c(OC[C@@H]4CCCN4)nc(-c4ccncc4)nc3c12` [compound 479, 9-Chloro-2-pyridin-4-yl-4-((S)-1-pyrrolidin-2-ylmethoxy)-benzo[4,5]thieno[3,2-d]pyrimidine] in this work. An IC50 of 10 to 40 µM was found for `Cc1csc2c(OC[C@H](N)Cc3ccccc3)nc(-c3ccncc3)nc12` [compound 482, (R)-1-(7-Methyl-2-pyridin-4-yl-thieno[3,2-d]pyrimidin-4-yloxymethyl)-2-phenyl-ethylamine] in this work.

Same assay, conditions: kinase domain PKCi at 2 μM ATP; read-out: IC50 in IMAP assay against kinase domain PKCi (Activity)
An IC50 of 1 to 10 µM was found for `CC[C@@H](N)CNc1nc(-c2ccncc2)nc2sc3c(c12)CCCC3` [compound 17, (R)-N*1*-(2-Pyridin-4-yl-5,6,7,8-tetrahydro-benzo[4,5]thieno[2,3-d]pyrimidin-4-yl)-butane-1,2-diamine] in this work. An IC50 of 0.1 to 1 µM was found for `NCCOc1nc(-c2ccncc2)nc2sc3c(c12)CCCC3` [compound 136] in this work. An IC50 of 1 to 10 µM was found for `C[C@@H](N)COc1nc(-c2ccncc2)nc2sc3c(c12)CCCC3` [compound 145, (R)-1-Methyl-2-(2-pyridin-4-yl-5,6,7,8-tetrahydro-benzo[4,5]thieno[2,3-d]pyrimidin-4-yloxy)-ethylamine] in this work. An IC50 of 0.1 to 1 µM was found for `N[C@H](COc1nc(-c2ccncc2)nc2sc3c(c12)CCCC3)Cc1ccccc1` [compound 143, (S)-2-Phenyl-1-(2-pyridin-4-yl-5,6,7,8-tetrahydro-benzo[4,5]thieno[2,3-d]pyrimidin-4-yloxymethyl)-ethylamine] in this work.
